Experiments:
[1] = Antioxidant effect by the TEAC III method; type: biochemical; settings: in comparison with Trolox and ascorbic acid
Experimental: The relative antioxidant effect of […] extract was determined by the TEAC III method in comparison with Trolox and ascorbic acid: The TEAC III method and other methods are described in Böhm V. (2000) Ernährungsumschau 47, pages 372-375.

[2] = tested on: phytohaemagglutinin-stimulated mononuclear cells from peripheral blood; test: Inhibition of proliferation of stimulated mononuclear cells by individual flavonoids (3H-thymidine incorporation); type: cell-based, human; settings: luteolin, luteolin-7-glucoside, apigenin at 64-2 μg/ml; 1 μg/ml phytohaemagglutinin; 24 h + 18 h 3H-thymidine; FIG. 3b
Experimental: For this purpose, mononuclear cells from the peripheral blood of a health donor were isolated via Ficoll density gradients and incubated in RPMI medium with 5% foetal calf serum in microtitre plates. The cells were incubated in triplicates with the flavonoids luteolin, luteolin-7-glucoside and apigenin. The pure substances were dissolved in 70% ethanol and further diluted in medium. The final concentrations were 64, 32, 16, 8, 4, 2 and 0 μg/ml. After addition of the flavonoids, the cells were stimulated with 1 μg/ml of phytohaemagglutinin and incubated for 24 h in an incubator at 37° C. After addition of 1 μCurie of radioactive ^3H-thymidine, the cells were incubated for a further 18 h, and the incorporated radioactivity was then measured in a scintillation counter (Canberra-Packard).

[3] = tested on: activated mononuclear cells (lymphocytes); test: Induction of apoptosis in activated mononuclear cells (cell death detection ELISA); type: cell-based; settings: individual flavonoids contained in the extracts; FIG. 5b
Experimental: After addition of the additives, the cells were stimulated with 1 μg/ml of phytohaemagglutinin and incubated for 48 h in an incubator. The apoptosis induction was then determined by measuring the oligonucleosomes (low molecular weight DNA fragments) formed in the cells (cell death detection ELISA). […] The apoptosis induction could be blocked by a caspase inhibitor, i.e. is caspase-induced (FIG. 5a).

Row | Structure (SMILES) | relative antioxidant effect [1] | proliferation-inhibiting effect among individual flavonoids [2] | apoptosis-inducing activity among individual flavonoids [3]
1 | Cc1c(C)c2c(c(C)c1O)CCC(C)(C(=O)O)O2 (stereo not shown) [Trolox] | 1.0 |  | 
2 | O=C1O[C@H]([C@@H](O)CO)C(O)=C1O [Ascorbic acid] | 1.1 |  | 
3 | O=c1cc(-c2ccc(O)c(O)c2)oc2cc(O)cc(O)c12 [luteolin] |  | strongest proliferation-inhibiting effect | strongest apoptosis-inducing activity
